Source: ChEMBL document CHEMBL5236625, “New class of fused [3,2-b][1,2,4]triazolothiazoles for targeting glioma in vitro” (Bioorg Med Chem Lett, 2023)
pIC50: −log10 of the molar value. Calls of active or inactive are those of the source. The rule behind the calls is not given here.

How the values were obtained:
LN-18 [1] = assay: Inhibition of colony formation in human LN-18 cells at 10 to 100 uM measured after 48 hrs by clonogenic assay; type: functional, cell-based; conditions: dose 10-100 µM
LN-18 [2] = assay: Induction of apoptosis in human LN-18 cells assessed as reduction in IRE1 expression at 10 to 100 uM by Western blot analysis; type: functional, cell-based; conditions: dose 10-100 µM
C6 [3] = assay: Induction of apoptosis in rat C6 cells assessed as reduction in XBP1 expression at 10 to 100 uM by Western blot analysis; type: functional, cell-based; conditions: dose 10-100 µM
C6 [4] = assay: Induction of apoptosis in rat C6 cells assessed as increase in Bax expression at 10 to 100 uM by Western blot analysis; type: functional, cell-based; conditions: dose 10-100 µM
C6 [5] = assay: Induction of apoptosis in rat C6 cells assessed as reduction in IRE1 expression at 10 to 100 uM by Western blot analysis; type: functional, cell-based; conditions: dose 10-100 µM
C6 [6] = assay: Induction of apoptosis in rat C6 cells assessed as cell population in […] at 50 to 100 uM (reference value: 2 to 7%); type: functional; conditions: dose 50-100 µM
LN-18 [7] = assay: Induction of cell cycle arrest in human LN-18 cells assessed as cell population in G2-M phase at 10 uM (reference value: 39.4%); type: functional
LN-18 [8] = assay: Antimigratory activity against human LN-18 cells assessed as rate of cell migration measured at 100 uM by wound healing assay (reference value: 24.46 um/hr); type: functional
C6 [9] = assay: Inhibition of AKT phosphorylation at Thr308 in rat C6 cells by Western blot analysis; type: cell-based; conditions: dose 10-100 µM
LN-18 [10] = assay: Induction of apoptosis in human LN-18 cells assessed as increase in Bax expression at 10 to 100 uM by Western blot analysis; type: functional, cell-based; conditions: dose 10-100 µM
Rattus norvegicus = species: Rattus norvegicus; assay: Inhibition of ERK phosphorylation in rat C6 cells by Western blot analysis; type: cell-based; conditions: dose 50-100 µM
C6 [11] = assay: Inhibition of colony formation in rat C6 cells at 10 to 100 uM measured after 48 hrs by clonogenic assay; type: functional, cell-based; conditions: dose 10-100 µM
LN-18 [12] = assay: Induction of apoptosis in human LN-18 cells assessed as cell population in […] at 50 to 100 uM (reference value: 2 to 7%); type: functional; conditions: dose 50-100 µM
C6 [13] = assay: Antimigratory activity against rat C6 cells assessed as rate of cell migration measured at 100 uM by wound healing assay (reference value: 21.95 um/hr); type: functional
C6 [14] = assay: Induction of cell cycle arrest in rat C6 cells assessed as cell population in G2-M phase at 10 uM (reference value: 19.3%); type: functional
C6 [15] = assay: Inhibition of AKT phosphorylation at Ser473 in rat C6 cells by Western blot analysis; type: cell-based; conditions: dose 10-100 µM
LN-18 [16] = assay: Cytotoxicity against human LN-18 cells assessed as cell viability measured upto 108 hrs by MTT assay; type: functional, cell-based; conditions: LN-18, 108 h
[17] = molecular target: T1, Serine/threonine-protein kinase AKT (Homo sapiens) (UniProt P31751+Q9Y243+P31749); assay: Inhibition of AKT phosphorylation at Thr308 in human LN-18 cells by Western blot analysis; type: cell-based; conditions: dose 10-100 µM
LN-18 [18] = assay: Induction of apoptosis in human LN-18 cells assessed as reduction in XBP1 expression at 10 to 100 uM by Western blot analysis; type: functional, cell-based; conditions: dose 10-100 µM
C6 [19] = assay: Cytotoxicity against rat C6 cells assessed as cell viability measured upto 108 hrs by MTT assay; type: functional, cell-based; conditions: C6, 108 h
LN-18 [20] = assay: Inhibition of ERK phosphorylation in human LN-18 cells by Western blot analysis; type: cell-based; conditions: dose 10-100 µM
[21] = molecular target: T1, Serine/threonine-protein kinase AKT (Homo sapiens); assay: Inhibition of AKT phosphorylation at Ser473 in human LN-18 cells by Western blot analysis; type: cell-based; conditions: dose 10-100 µM
[22] = Solubility in DMSO; type: physicochemical
LN-18 [23] = assay: Induction of cell cycle arrest in human LN-18 cells assessed as cell population in sub-G1 phase at 10 uM (reference value: 44%); type: functional
C6 [24] = assay: Induction of cell cycle arrest in rat C6 cells assessed as cell population in sub-G1 phase at 10 uM (reference value: 60%); type: functional

T1 sequence (P31749 whole entry, looked up): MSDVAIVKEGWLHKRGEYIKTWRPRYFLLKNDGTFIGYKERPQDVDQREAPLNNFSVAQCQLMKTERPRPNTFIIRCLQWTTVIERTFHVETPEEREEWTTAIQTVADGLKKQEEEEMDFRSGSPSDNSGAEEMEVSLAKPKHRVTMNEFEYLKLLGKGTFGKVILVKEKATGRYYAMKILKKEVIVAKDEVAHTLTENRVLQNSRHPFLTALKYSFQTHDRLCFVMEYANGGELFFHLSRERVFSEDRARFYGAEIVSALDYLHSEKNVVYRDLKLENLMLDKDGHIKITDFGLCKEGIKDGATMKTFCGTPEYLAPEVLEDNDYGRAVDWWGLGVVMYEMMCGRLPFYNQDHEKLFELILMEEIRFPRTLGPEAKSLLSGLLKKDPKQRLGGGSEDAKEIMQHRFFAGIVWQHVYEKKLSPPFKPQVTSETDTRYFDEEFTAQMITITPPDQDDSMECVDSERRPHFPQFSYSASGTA
T1 sequence (P31751 whole entry, looked up): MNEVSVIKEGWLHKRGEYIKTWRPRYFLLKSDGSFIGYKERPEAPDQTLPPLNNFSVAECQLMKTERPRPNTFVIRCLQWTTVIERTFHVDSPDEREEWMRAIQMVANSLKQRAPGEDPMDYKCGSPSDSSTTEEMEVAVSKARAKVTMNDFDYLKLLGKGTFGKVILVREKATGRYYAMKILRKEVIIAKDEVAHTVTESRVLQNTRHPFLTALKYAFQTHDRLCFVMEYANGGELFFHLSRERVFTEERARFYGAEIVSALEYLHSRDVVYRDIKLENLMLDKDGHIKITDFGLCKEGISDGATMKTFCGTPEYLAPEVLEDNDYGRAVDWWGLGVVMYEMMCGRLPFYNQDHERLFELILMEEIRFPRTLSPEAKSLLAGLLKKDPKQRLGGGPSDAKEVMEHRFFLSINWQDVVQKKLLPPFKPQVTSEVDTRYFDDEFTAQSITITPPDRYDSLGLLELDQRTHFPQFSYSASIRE
T1 sequence (Q9Y243 whole entry, looked up): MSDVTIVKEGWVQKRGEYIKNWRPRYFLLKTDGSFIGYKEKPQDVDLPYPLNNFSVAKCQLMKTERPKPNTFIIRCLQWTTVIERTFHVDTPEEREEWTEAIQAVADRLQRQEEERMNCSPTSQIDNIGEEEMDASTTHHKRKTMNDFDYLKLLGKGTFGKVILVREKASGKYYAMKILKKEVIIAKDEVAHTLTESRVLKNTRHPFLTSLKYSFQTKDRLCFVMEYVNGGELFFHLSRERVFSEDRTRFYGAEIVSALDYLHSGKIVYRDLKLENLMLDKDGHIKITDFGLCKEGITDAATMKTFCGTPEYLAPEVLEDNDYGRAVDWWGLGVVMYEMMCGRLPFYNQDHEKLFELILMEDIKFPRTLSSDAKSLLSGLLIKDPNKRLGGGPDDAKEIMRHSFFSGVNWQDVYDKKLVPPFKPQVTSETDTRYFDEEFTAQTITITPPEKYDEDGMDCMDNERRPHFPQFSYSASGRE

Row | SMILES | inhibition (LN-18 [1]) | Activity (LN-18 [2]) | Activity (C6 [3]) | Activity (C6 [4]) | Activity (C6 [5]) | Activity (C6 [6]) [%] | Activity (LN-18 [8]) [um/hr] | inhibition (C6 [9]) | Activity (LN-18 [10]) | inhibition (Rattus norvegicus) | inhibition (C6 [11]) | Activity (LN-18 [12]) [%] | Activity (C6 [13]) [um/hr] | inhibition (C6 [15]) | pIC50 (LN-18 [16]) | inhibition [17] | Activity (LN-18 [18]) | pIC50 (C6 [19]) | inhibition (LN-18 [20]) | inhibition [21] | other results
1 | O=C1c2ccccc2C(=O)N1c1nc2scc(-c3ccc(Br)cc3)n2n1 | Active | Active | Active | Active | Active | 47 | 14.36 | Dose-Dependent Effect | Active | Dose-Dependent Effect | Active | 47 | 8.96 | Dose-Dependent Effect | 4.90 | Dose-Dependent Effect | Active | 5.09 | Dose-Dependent Effect | Dose-Dependent Effect | Activity (LN-18 [7]): 54.9%; Activity (C6 [14]): 31.9%
2 | O=C1c2ccccc2C(=O)N1c1nc2scc(-c3ccc(-c4ccccc4)cc3)n2n1 | – | – | – | – | – | – | – | – | – | – | – | – | – | – | 5.05 | – | – | 5.24 | – | – | solubility [22]: Insoluble
3 | COc1ccc(-c2csc3nc(/N=C/c4ccc(Cl)cc4Cl)nn23)cc1 | – | – | – | – | – | – | – | – | – | – | – | – | – | – | 4.67 | – | – | 5.12 | – | – | solubility [22]: Insoluble
4 | O=[N+]([O-])c1ccc(-c2csc3nc(/N=C/c4ccc(Cl)cc4)nn23)cc1 | Active | Active | Active | Active | Active | 35 | 15.04 | Dose-Dependent Effect | Active | Dose-Dependent Effect | Active | 35 | 13.6 | Dose-Dependent Effect | 4.90 | Dose-Dependent Effect | Active | 5.06 | Dose-Dependent Effect | Dose-Dependent Effect | Activity (LN-18 [23]): 50%; Activity (C6 [24]): 66.5%
